Experimental data taken from PubChem BioAssay (NCI).
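All cell lines were grown in 96-well plates and treated with compound for 48 hours. GI50 marks 50% less growth. TGI denotes the concentration required for complete inhibition of growth.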

Experiments:
Assay in all cases: NCI-60 cell line screen, 48 h
RXF 393 renal = system: RXF 393 renal
KM12 colon = system: KM12 colon
U251 CNS = system: U251 CNS
CCRF-CEM leukemia = system: CCRF-CEM leukemia
HL-60(TB) leukemia = system: HL-60(TB) leukemia
SF-539 CNS = system: SF-539 CNS
NCI-H226 lung = system: NCI-H226 lung
HCC-2998 colon = system: HCC-2998 colon
786-0 renal = system: 786-0 renal
MALME-3M melanoma = system: MALME-3M melanoma

## CN(C)c1ccc(N=C(C#N)c2nc(N)nc(N3CCOCC3)n2)cc1
RXF 393 renal
  GI50: 27.5 µM
  TGI: 70.1 µM
KM12 colon
  GI50: 53 µM
  TGI: > 100 µM
U251 CNS
  GI50: 32.9 µM
  TGI: > 100 µM
CCRF-CEM leukemia
  GI50: 97.2 µM
  TGI: > 100 µM
HL-60(TB) leukemia
  GI50: 70.4 µM
  TGI: > 100 µM
SF-539 CNS
  GI50: 21.4 µM
  TGI: 46.1 µM
NCI-H226 lung
  GI50: > 100 µM
  TGI: > 100 µM
HCC-2998 colon
  GI50: > 100 µM
  TGI: > 100 µM
786-0 renal
  GI50: 35.6 µM
  TGI: > 100 µM
MALME-3M melanoma
  GI50: 16.4 µM
  TGI: 49.4 µM

## COc1cc2c(cc1OCCCN1CCN(CCCOc3cc4c(cc3OC)C(=O)C3CCC[C@H]3C=N4)CC1)N=C[C@@H]1CCCC1C2=O (some centres not stated)
RXF 393 renal
  GI50: 3 µM
  TGI: 17.5 µM
KM12 colon
  GI50: 22.7 µM
  TGI: > 100 µM
U251 CNS
  GI50: 4.91 µM
  TGI: > 100 µM
CCRF-CEM leukemia
  GI50: 0.478 µM
  TGI: > 74.3 µM
HL-60(TB) leukemia
  GI50: 1.51 µM
  TGI: 4.1 µM
SF-539 CNS
  GI50: 0.614 µM
  TGI: 16.4 µM
NCI-H226 lung
  GI50: 13.2 µM
  TGI: > 100 µM
HCC-2998 colon
  GI50: 7.21 µM
  TGI: 17.5 µM
786-0 renal
  GI50: 3.84 µM
  TGI: > 100 µM
MALME-3M melanoma
  GI50: 2.83 µM
  TGI: 21.5 µM

## Cn1cc(-c2csc(-c3cn(C)c4ncccc34)n2)c2ccccc21
RXF 393 renal
  GI50: 0.299 µM
  TGI: 2.96 µM
KM12 colon
  GI50: 0.242 µM
  TGI: > 76.7 µM
U251 CNS
  GI50: 0.404 µM
  TGI: 13.3 µM
CCRF-CEM leukemia
  GI50: 0.368 µM
  TGI: > 61.6 µM
HL-60(TB) leukemia
  GI50: 0.283 µM
  TGI: 18.8 µM
SF-539 CNS
  GI50: 0.158 µM
  TGI: 0.579 µM
NCI-H226 lung
  GI50: 0.86 µM
  TGI: 26.7 µM
HCC-2998 colon
  GI50: 1.15 µM
  TGI: > 100 µM
786-0 renal
  GI50: 0.588 µM
  TGI: 18.1 µM
MALME-3M melanoma
  GI50: 0.647 µM
  TGI: 41 µM

## CC(=O)OCC1OC(n2cnc3c(I)nc(I)nc32)C(OC(C)=O)C1OC(C)=O (configuration not stated)
RXF 393 renal
  TGI: 38.3 µM
KM12 colon
  TGI: 15.6 µM
U251 CNS
  TGI: 22.9 µM
CCRF-CEM leukemia
  TGI: 27.4 µM
HL-60(TB) leukemia
  TGI: 5.52 µM
SF-539 CNS
  TGI: 29.6 µM
NCI-H226 lung
  TGI: 35.5 µM
HCC-2998 colon
  TGI: 16.9 µM
786-0 renal
  TGI: 27.8 µM
MALME-3M melanoma
  TGI: 33.5 µM

## Clc1ccc(C2=NN(c3ccccc3)C3c4cc(Br)ccc4OCC23)cc1 (configuration not stated)
RXF 393 renal
  TGI: > 100 µM
KM12 colon
  TGI: > 100 µM
U251 CNS
  TGI: > 100 µM
CCRF-CEM leukemia
  TGI: > 100 µM
HL-60(TB) leukemia
  TGI: > 100 µM
SF-539 CNS
  TGI: > 100 µM
HCC-2998 colon
  TGI: > 100 µM
786-0 renal
  TGI: > 100 µM
MALME-3M melanoma
  TGI: > 100 µM

## COc1cc(-c2[nH]ncc2CCCC(=O)Nc2ccccc2[N+](=O)[O-])ccc1O
U251 CNS
  TGI: > 100 µM
CCRF-CEM leukemia
  TGI: > 100 µM
HL-60(TB) leukemia
  TGI: > 100 µM
SF-539 CNS
  TGI: > 100 µM
NCI-H226 lung
  TGI: > 100 µM
HCC-2998 colon
  TGI: > 100 µM
786-0 renal
  TGI: > 100 µM
MALME-3M melanoma
  TGI: 48.9 µM

## COc1ccc(Br)c(CCCCC(=O)O)c1
RXF 393 renal
  TGI: > 100 µM
U251 CNS
  TGI: > 100 µM
CCRF-CEM leukemia
  TGI: > 100 µM
HL-60(TB) leukemia
  TGI: > 100 µM
SF-539 CNS
  TGI: > 100 µM
HCC-2998 colon
  TGI: > 100 µM
786-0 renal
  TGI: > 100 µM

## O=[N+]([O-])c1ccc(N=Nc2c(O)[nH]c3ccc(Br)cc23)c([N+](=O)[O-])c1
RXF 393 renal
  TGI: 15.3 µM
KM12 colon
  TGI: 79.6 µM
U251 CNS
  TGI: 16.3 µM
CCRF-CEM leukemia
  TGI: 9.3 µM
HL-60(TB) leukemia
  TGI: 4.77 µM
HCC-2998 colon
  TGI: 23.4 µM
786-0 renal
  TGI: 13.2 µM
MALME-3M melanoma
  TGI: 15 µM

## O=S(=O)(Nc1ccc2ccc3cccc4ccc1c2c34)c1ccccc1
RXF 393 renal
  TGI: > 100 µM
KM12 colon
  TGI: > 100 µM
U251 CNS
  TGI: > 100 µM
CCRF-CEM leukemia
  TGI: 53 µM
HL-60(TB) leukemia
  TGI: > 100 µM
SF-539 CNS
  TGI: > 100 µM
NCI-H226 lung
  TGI: > 100 µM
786-0 renal
  TGI: > 100 µM
MALME-3M melanoma
  TGI: > 100 µM

## CCOC(=O)C1=C(O)CSC1=Nc1ccc(N=C2SCC(O)=C2C(=O)OCC)cc1
RXF 393 renal
  TGI: 32.6 µM
KM12 colon
  TGI: 44.9 µM
U251 CNS
  TGI: 63 µM
CCRF-CEM leukemia
  TGI: > 100 µM
HL-60(TB) leukemia
  TGI: > 100 µM
SF-539 CNS
  TGI: 43 µM
NCI-H226 lung
  TGI: 44 µM
786-0 renal
  TGI: 31.4 µM
MALME-3M melanoma
  TGI: 40.4 µM

## C=C(CNCCc1ccc(O)cc1)[C@@H]1CC[C@]2(CO)CC[C@]3(C)[C@H](CC[C@@H]4[C@@]5(C)CCC(NCCO)C(C)(C)[C@@H]5CC[C@]43C)[C@@H]12 (some centres not stated)
RXF 393 renal
  GI50: 1.27 µM
  TGI: 2.63 µM
KM12 colon
  GI50: 1.66 µM
  TGI: 3.16 µM
U251 CNS
  GI50: 1.06 µM
  TGI: 2.24 µM
CCRF-CEM leukemia
  GI50: 0.433 µM
  TGI: 1.92 µM
SF-539 CNS
  GI50: 1.5 µM
  TGI: 2.87 µM
NCI-H226 lung
  GI50: 2 µM
  TGI: 4.31 µM
HCC-2998 colon
  GI50: 1.57 µM
  TGI: 3.21 µM
786-0 renal
  GI50: 1.25 µM
  TGI: 2.58 µM
MALME-3M melanoma
  GI50: 1.54 µM
  TGI: 3.08 µM

## CC1(C)OCC(C2OC(On3nnc4ccc(Cl)cc43)C3OC(C)(C)OC23)O1 (configuration not stated)
RXF 393 renal
  TGI: > 100 µM
KM12 colon
  TGI: > 100 µM
U251 CNS
  TGI: > 100 µM
CCRF-CEM leukemia
  TGI: > 100 µM
HL-60(TB) leukemia
  TGI: > 100 µM
SF-539 CNS
  TGI: > 100 µM
NCI-H226 lung
  TGI: > 100 µM
786-0 renal
  TGI: > 100 µM
MALME-3M melanoma
  TGI: > 100 µM

## COc1cccc(C2C3=C(COC3=O)N(CCO)c3cc4c(cc32)CCC4)c1 (configuration not stated)
KM12 colon
  GI50: 0.0219 µM
  TGI: 0.443 µM
U251 CNS
  GI50: 0.143 µM
  TGI: 11.5 µM
CCRF-CEM leukemia
  GI50: 0.122 µM
  TGI: > 50 µM
HL-60(TB) leukemia
  GI50: 0.111 µM
  TGI: 0.314 µM
SF-539 CNS
  GI50: 0.0457 µM
NCI-H226 lung
  GI50: 0.274 µM
  TGI: > 27.8 µM
HCC-2998 colon
  GI50: 0.0795 µM
  TGI: 1.31 µM
786-0 renal
  GI50: 0.0731 µM
  TGI: 10.8 µM
MALME-3M melanoma
  GI50: 0.915 µM
  TGI: > 50 µM

## COc1cc(C2c3cc4c(cc3[C@@H](OCCN)[C@H]3COC(=O)C23)OCO4)cc(OC)c1O (some centres not stated)
RXF 393 renal
  TGI: 2.35 µM
U251 CNS
  TGI: 0.401 µM
CCRF-CEM leukemia
  TGI: 0.0409 µM
HL-60(TB) leukemia
  TGI: 0.0633 µM
SF-539 CNS
  TGI: 0.345 µM
NCI-H226 lung
  TGI: 0.933 µM
HCC-2998 colon
  TGI: 2.1 µM
786-0 renal
  TGI: 0.437 µM
MALME-3M melanoma
  TGI: 1.59 µM

## NC(=NCc1ccccc1)N/N=C\c1ccnc2ccccc12
KM12 colon
  TGI: 47.9 µM
U251 CNS
  TGI: 36.6 µM
CCRF-CEM leukemia
  TGI: 76.3 µM
HL-60(TB) leukemia
  TGI: 36.4 µM
SF-539 CNS
  TGI: 29.2 µM
NCI-H226 lung
  TGI: 38.6 µM
HCC-2998 colon
  TGI: 4.51 µM
786-0 renal
  TGI: 29.9 µM
MALME-3M melanoma
  TGI: 27 µM

## CCOC(=O)C12CN(C34CC5CC(CC(C5)C3)C4)CC(C(=O)OCC)(C1=O)C(c1ccccc1)OC2c1ccccc1 (configuration not stated)
RXF 393 renal
  TGI: > 100 µM
KM12 colon
  TGI: > 100 µM
U251 CNS
  TGI: > 100 µM
CCRF-CEM leukemia
  TGI: > 100 µM
HL-60(TB) leukemia
  TGI: > 100 µM
NCI-H226 lung
  TGI: > 100 µM
HCC-2998 colon
  TGI: > 100 µM
786-0 renal
  TGI: > 100 µM
MALME-3M melanoma
  TGI: > 100 µM

## COc1ccc(C(=O)Nc2ccccc2)cc1[N+](=O)[O-]
RXF 393 renal
  TGI: > 100 µM
KM12 colon
  TGI: > 100 µM
U251 CNS
  TGI: > 100 µM
CCRF-CEM leukemia
  TGI: > 100 µM
SF-539 CNS
  TGI: > 100 µM
NCI-H226 lung
  TGI: > 100 µM
786-0 renal
  TGI: > 100 µM
MALME-3M melanoma
  TGI: > 100 µM

## CCCCCNC(=O)C1C(=O)N(CCCCC)C(=O)/C1=N\N (configuration not stated)
KM12 colon
  TGI: > 100 µM
U251 CNS
  TGI: > 100 µM
CCRF-CEM leukemia
  TGI: > 100 µM
HL-60(TB) leukemia
  TGI: > 100 µM
SF-539 CNS
  TGI: > 100 µM
HCC-2998 colon
  TGI: > 100 µM
786-0 renal
  TGI: > 100 µM
MALME-3M melanoma
  TGI: > 100 µM
